Measurements reported in patent US8895695B2, “Template-fixed beta-hairpin peptidomimetics with CXCR4 antagonizing activity” (priority 2003, dated 2014).

How the values were obtained:
CCRF-CEM cells = experiment: Chemotactic assay (cell migration assay); assay type: cell-based; details: 1 nM SDF-1, 4 hours
Protocol: All fine chemicals came from Merck (Darmstadt, Germany).
2.7. Chemotactic Assay (Cell Migration Assay)
The chemotactic response of CCRF-CEM cells to a gradient of stromal cell-derived factor 1α (SDF-1) was measured using disposable assay plates from Neuroprobe (5μ pore size) (Gaithersburg, Md.), according to the manufacturer's directions and references therein [especially ref. 8, below]. Briefly, one 175 cm^2 flask was washed once with Dubecco's phosphate buffered saline (DPBS), and trypsinized for 10 minutes or until cells had lifted. The trypsin was neutralized by the addition of fresh medium containing serum and the cells were pelleted, washed once in DPBS, and resuspended at 1-0.5×10^7 cells/ml in RPMI+0.5% bovine serum albumin (BSA). 45 μl of cell suspension were mixed with 5 μl of 10-fold concentrated PEM peptide diluted in the same assay medium. […] The optical absorbance at 595 nm (ABS595) was read using a Tecan Genios plate reader with Magellan software. The number of cells migrated was determined by comparing ABS595 values against a standard curve generated with a known number of cells in the assay plate and were plotted against SDF-1 concentration to obtain a sigmoidal curve and to determine the IC50 values. The values for IC50 were determined using the Trendline function in Microsoft Excel by fitting a logarithmic curve to the averaged datapoints.

[1] = Pharmacokinetic study (PK) after single i.v. and i.p. administration; assay type: in vivo, male CD-1 mice
Protocol: 2.9. Pharmacokinetic Study (PK)
30 grams (±20%) male CD-1 mice obtained from Charles River Laboratories Deutschland GmbH were used in the study. The vehicle, physiological saline, was added to give a final concentration of 1 mg/ml of the compounds. […] Approximately 250-300 μl of blood was removed under light isoflurane anesthesia from the retro-orbital plexus at predetermined time intervals (0, 5, 15, 30 min and 1, 2 and 3 hours for the i.v. study and 0, 15, 30 min and 1, 2, 4 and 8 hours for the i.p. study) and added to heparinized tubes. Plasma was removed from pelleted cells upon centrifugation and frozen at −80° C. prior to HPLC-MS analysis.
Preparation of the Plasma Calibration Samples
“Blank” mouse plasma from untreated animals was used. […] The OASIS® HLB cartridges were conditioned with 1 ml of methanol and then with 1 ml of 1% NH3 in water. Samples were then diluted with 700 μl of 1% NH3 in water and loaded.
The plate was washed with 1 ml of methanol/1% NH3 in water 5/95. Elution was performed using 1 ml of 0.1% TFA in methanol.
The plate containing eluates was introduced into the concentrator system and taken to dryness. The residues were dissolved in 100 μL of formic acid 0.1%/acetonitrile, 95/5 (v/v) and analysed in the HPLC/MS on a reverse phase analytical column (Jupiter C18, 50×2.0 mm, 5 μm, Phenomenex), using gradient elution (mobile phases A: 0.1% formic acid in water, B: Acetonitrile; from 5% B to 100% B in 2 min.).
Preparation of Plasma Samples
Samples coming from animal treatments were pooled in order to obtain an appropriate volume for the extraction. If the total volume obtained was less than 0.2 ml the appropriate amount of “blank” mouse plasma was added in order to keep the matrix identical to the calibration curve. Samples were than spiked with IS and processed as described for the calibration curve.
Pharmacokinetic Evaluation
PK analysis was performed on pooled data (generally n=2 or 3) using the software PK solutions 2.0™ (Summit Research Service, Montrose, Colo. 81401 USA). The area under the curve AUC was calculated by the linear trapezoidal rule. AUC(t-∞) was estimated as Ct/b (b: elimination rate constant). […] the sum of AUC(0-t) and AUC(t-∞). Elimination half-life was calculated by the linear regression on at least three data points during the elimination phase. The time intervals selected for the half-life determinations were evaluated by the correlation coefficient (r^2), which should be at least above 0.85 and most optimally above 0.96. In case of i.v. administration the initial concentration at tzero was determined by extrapolation of the curve through the first two time points. Finally bioavailability after i.p. administration was calculated from the normalised AUC(0-∞) ration after i.p. versus i.v. administration.

[2] = male, CD-1, mouse, in vivo, ip, 10 mg/kg
[3] = male, CD-1, mouse, in vivo, iv, 2 mg/kg

SMILES: N=C(N)NCCC[C@@H]1NC(=O)[C@@H]2CSSC[C@H](NC(=O)[C@H](Cc3ccc4ccccc4c3)NC(=O)[C@H](CCCNC(=N)N)NC(=O)[C@H](CCCNC(=N)N)NC(=O)[C@H]3CCCN3C(=O)CNC1=O)C(=O)N[C@@H](Cc1ccc(O)cc1)C(=O)N[C@@H](CCCNC(N)=O)C(=O)N[C@@H](CCCCN)C(=O)N1CCC[C@@H]1C(=O)N1CCC[C@H]1C(=O)N[C@@H](Cc1ccc(O)cc1)C(=O)N[C@@H](CCCNC(=N)N)C(=O)N[C@@H](CCCNC(N)=O)C(=O)N2 [Ex. 51]
- IC50 (CCRF-CEM cells): 0.275 µM
- times lower normalised Cmax after i.p. administration versus i.v. ([1]; i.p. 10 mg/kg versus i.v. 2 mg/kg, mouse): 45 times
- AUC [1, 2]: 1300 ng·h/mL
- AUC(0-inf) [1, 2]: 12900 ng·h/mL
- AUC(0-t) [1, 2]: 11100 ng·h/mL
- Tmax [1, 2]: 2 h
- half-life [1, 2]: 2.5 h
- level at 0.25 h [1, 2]: 673 ng/mL
- level at 0.5 h [1, 2]: 1570 ng/mL
- level at 1 h [1, 2]: 2010 ng/mL
- level at 2 h [1, 2]: 3160 ng/mL
- level at 4 h [1, 2]: 1020 ng/mL
- level at 8 h [1, 2]: 519 ng/mL
- Cmax ([1]; male, CD-1, mouse, in vivo, ip, 10 mg/kg, Cmax ng/ml): 3160 ng/mL
- Cmax ([1]; male, CD-1, mouse, in vivo, ip, 10 mg/kg, Cmax norm.): 316 ng/mL
- AUC [1, 3]: 953 ng·h/mL
- AUC(0-inf) [1, 3]: 1900 ng·h/mL
- AUC(0-t) [1, 3]: 1700 ng·h/mL
- Tmax [1, 3]: 0 h
- half-life [1, 3]: 2.8 h
- level at 0.083 h [1, 3]: 1460 ng/mL
- level at 0.25 h [1, 3]: 328 ng/mL
- level at 0.5 h [1, 3]: 300 ng/mL
- level at 1 h [1, 3]: 80 ng/mL
- level at 2 h [1, 3]: 68 ng/mL
- level at 3 h [1, 3]: 49 ng/mL
- Cmax ([1]; male, CD-1, mouse, in vivo, iv, 2 mg/kg, Cmax ng/ml (extrapolated Cinitial)): 28600 ng/mL
- Cmax ([1]; male, CD-1, mouse, in vivo, iv, 2 mg/kg, Cmax observed): 1460 ng/mL
- % absorbed (F) (percentage of normalized AUC0-inf. intraperitoneal against normalized AUC0-inf i.v.) ([1]; mouse, in vivo, 2 mg/kg): 100%
- % absorbed (F) (percentage of normalized AUC0-inf. intraperitoneal against normalized AUC0-inf i.v.) ([1]; mouse, in vivo, 10 mg/kg): 136%
- β ([1]; mouse, in vivo, ip, 10 mg/kg): 0.28 h⁻¹
- β ([1]; mouse, in vivo, iv, 2 mg/kg): 0.24 h⁻¹
